Measurements: patent US9453062B2, “Glucose dependent insulinotropic polypeptide analogs, pharmaceutical compositions and use thereof” (Beijing Hanmi Pharmaceutical Co., Ltd., priority 2011, dated 2016)
Read-outs that look alike come from different tables or passages of the source. *1 amine or outer side, *2 acyl side, *3 side chain or, on linkers, in order; H or OH if unused. Where a SMILES comes first, the peptide text is derived from it. Bridges are numbered along the chain shown (N, C = ends). Side-chain parts run from the residue outwards. [ ]: non-standard residue; d: D form. The star is where a group is joined. γGlu = O=C(O)[C@H](CCC(=O)[*:2])N[*:1]; Palmitoyl = CCCCCCCCCCCCCCCC(=O)*; Aib = CC(C)(N)C(=O)O

Key:
hGIPR = biological target: T1, hGIPR (Homo sapiens, UniProt P48546); assay: hGIPR-mediated cAMP induction assay in CHO cell line; assay type: cell-based
T1 construct: expressed in transfected cells; host or cells: CHO
T1 sequence (P48546 22-466): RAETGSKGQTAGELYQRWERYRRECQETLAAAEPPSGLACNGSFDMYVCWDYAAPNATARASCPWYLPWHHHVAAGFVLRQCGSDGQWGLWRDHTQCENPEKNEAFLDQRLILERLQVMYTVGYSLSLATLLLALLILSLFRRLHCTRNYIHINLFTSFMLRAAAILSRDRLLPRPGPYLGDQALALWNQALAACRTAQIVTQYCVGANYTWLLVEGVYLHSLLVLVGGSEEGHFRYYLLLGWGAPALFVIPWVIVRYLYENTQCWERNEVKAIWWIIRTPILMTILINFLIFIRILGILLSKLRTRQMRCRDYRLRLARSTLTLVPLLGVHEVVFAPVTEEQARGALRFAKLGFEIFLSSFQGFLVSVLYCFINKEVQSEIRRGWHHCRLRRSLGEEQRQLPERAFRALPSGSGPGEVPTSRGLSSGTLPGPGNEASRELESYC
Description: The cAMP in the sample or standard competes with horseradish peroxidase (HRP)-labeled cAMP conjugate for binding sites on the anti-cAMP antibodies. In the absence of cAMP, most of the HRP-cAMP conjugate is bound to the antibody. Increasing concentrations of cAMP competitively decrease the amount of bound conjugate, thus decreasing measured HRP activity.
Assay kit: CatchPoint™ Cyclic-AMP Fluorescent Assay Kit (Molecular Devices, Product # R8088)
Cell lines: CHO hGLP1R, CHO hGIPR
Cell seeding: CHO hGLP1R or CHO hGIPR cells: 10,000 cells/well/100 uL at 37° C. 5% CO2 overnight.
Gently aspirate off media and wash the cells with KRBG Buffer, 100 uL/well.
Incubate the plate for 10 min at room temperature. Then add the KRBG buffer with 3× final concentration of the tested samples (5-foled series diluted from 5,000 nM), 50 uL/well. Incubate the plate at 37° C. 5% CO2 for 30 min.
Add 50 uL of Lysis buffer to each well and put the plate on a shaker for 10 min.
Place 40 uL of samples and analyze in appropriate wells. And test the cAMP concentration in each sample by following the manufacture's instruction.
Detect the fluorescence signal at Ex: 490 nm and Em: 530 nm. Transfer the FI signal to cAMP concentration by the cAMP standard curve. The Dose-response curve and EC50 were obtained by logistic fitting of Origin 8.

hGLP-1R = biological target: T2, hGLP-1R (Homo sapiens, UniProt P43220); assay: hGLP-1R-mediated cAMP induction assay in CHO cell line; assay type: cell-based;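 also: CHO cells expressing human GLP-1R, treated 30 min at 37 °C, intracellular cAMP measured by competitive fluorescent immunoassay and converted via a cAMP standard curve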
T2 construct: expressed in transfected cells; host or cells: CHO
T2 sequence (P43220 24-463): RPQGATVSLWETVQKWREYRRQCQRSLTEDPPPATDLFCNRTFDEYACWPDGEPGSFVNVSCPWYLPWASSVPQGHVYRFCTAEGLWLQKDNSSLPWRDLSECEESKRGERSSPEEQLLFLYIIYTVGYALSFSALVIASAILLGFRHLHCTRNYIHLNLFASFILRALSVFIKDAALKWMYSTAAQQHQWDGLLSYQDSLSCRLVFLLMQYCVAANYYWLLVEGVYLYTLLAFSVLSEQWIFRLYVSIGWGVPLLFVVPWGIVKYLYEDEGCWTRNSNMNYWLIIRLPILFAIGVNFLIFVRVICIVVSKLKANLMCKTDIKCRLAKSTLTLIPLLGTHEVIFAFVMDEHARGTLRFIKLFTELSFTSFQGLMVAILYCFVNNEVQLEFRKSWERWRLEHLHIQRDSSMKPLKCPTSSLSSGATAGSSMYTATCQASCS

Row | EC50 (hGIPR; Table 1, CHO/hGIPR cells, read-out: GIPR EC50) | GIPR Relative Potency (hGIPR; Table 1, against native GIP) | EC50 (hGLP-1R; Table 1, CHO/hGLP-1R cells, read-out: GLP-1R EC50) | GLP-1R Relative Potency (hGLP-1R; Table 1, against native GLP-1) | SMILES | GIP Receptor Relative Potency (hGIPR; Table 3, against native GIP) | GLP-1 Receptor Relative Potency (hGLP-1R; Table 3, against native GLP-1) | EC50 (hGIPR; Table 3, CHO hGIPR cells) | EC50 (hGLP-1R; Table 3, CHO hGLP1R cells)
1 |  |  |  |  | CC[C@H](C)[C@H](NC(=O)[C@H](Cc1ccccc1)NC(=O)[C@H](CCC(=O)O)NC(=O)[C@H](CCCNC(=N)N)NC(=O)[C@@H](NC(=O)[C@H](C)NC(=O)[C@H](CCC(=O)O)NC(=O)[C@H](CCCCN)NC(=O)[C@H](CCC(=O)O)NC(=O)[C@H](CCSC)NC(=O)[C@H](Cc1ccc(O)cc1)NC(=O)[C@@H](NC(=O)[C@H](CO)NC(=O)[C@H](Cc1ccc(O)cc1)NC(=O)[C@H](CC(=O)O)NC(=O)[C@H](CO)NC(=O)[C@@H](NC(=O)[C@H](Cc1ccccc1)NC(=O)[C@@H](NC(=O)CNC(=O)[C@H](CCC(=O)O)NC(=O)C(C)(C)NC(=O)[C@@H](N)Cc1ccc(O)cc1)[C@@H](C)O)[C@@H](C)O)[C@@H](C)CC)C(C)C)C(=O)N[C@@H](C)C(=O)N[C@@H](Cc1c[nH]c2ccccc12)C(=O)N[C@@H](CC(C)C)C(=O)N[C@H](C(=O)N[C@@H](CCCCN)C(=O)NCC(=O)N[C@@H](CCCCN)C(=O)N[C@@H](CCCCN)C(=O)N[C@@H](CCCCN)C(=O)N[C@@H](CCCCN)C(=O)N[C@@H](CCCCN)C(N)=O)C(C)C [Compound 060] (H-Y[Aib]EGTFTSDYSIYMEKEAVREFIAWLVKGKKKKK-NH2; N-terminus assumed) | 8.4 | 36.8 |  | 
2 |  |  |  |  | CC[C@H](C)[C@H](NC(=O)[C@H](Cc1ccccc1)NC(=O)[C@H](CCC(=O)O)NC(=O)[C@H](CCCNC(=N)N)NC(=O)[C@@H](NC(=O)[C@H](C)NC(=O)[C@H](CCC(=O)O)NC(=O)[C@@H]1CCCCNC(=O)CC[C@H](NC(=O)[C@H](CO)NC(=O)[C@H](Cc2ccc(O)cc2)NC(=O)[C@H](CC(=O)O)NC(=O)[C@H](CO)NC(=O)[C@@H](NC(=O)[C@H](Cc2ccccc2)NC(=O)[C@@H](NC(=O)CNC(=O)[C@H](CCC(=O)O)NC(=O)C(C)(C)NC(=O)[C@@H](N)Cc2ccc(O)cc2)[C@@H](C)O)[C@@H](C)O)C(=O)N[C@@H](Cc2ccc(O)cc2)C(=O)N[C@@H](CCSC)C(=O)N[C@@H](CCC(=O)O)C(=O)N1)C(C)C)C(=O)N[C@@H](C)C(=O)N[C@@H](Cc1c[nH]c2ccccc12)C(=O)N[C@@H](CC(C)C)C(=O)N[C@H](C(=O)N[C@@H](CCCCN)C(=O)NCC(N)=O)C(C)C [Compound 052-2] (H-Y[Aib]EGTFTSDYSEYMEKEAVREFIAWLVKG-NH2; lactam 12-16) | 146.8 | 132.8 |  | 
3 |  |  |  |  | CC[C@H](C)[C@H](NC(=O)[C@H](Cc1ccccc1)NC(=O)[C@H](CCC(=O)O)NC(=O)[C@H](CCCNC(=N)N)NC(=O)[C@@H](NC(=O)[C@H](C)NC(=O)[C@H](CCC(=O)O)NC(=O)[C@H](CCCCN)NC(=O)[C@H](CCC(=O)O)NC(=O)[C@H](CCSC)NC(=O)[C@H](Cc1ccc(O)cc1)NC(=O)[C@@H](NC(=O)[C@H](CO)NC(=O)[C@H](Cc1ccc(O)cc1)NC(=O)[C@H](CC(=O)O)NC(=O)[C@H](CO)NC(=O)[C@@H](NC(=O)[C@H](Cc1ccccc1)NC(=O)[C@@H](NC(=O)CNC(=O)[C@H](CCC(=O)O)NC(=O)C(C)(C)NC(=O)[C@@H](N)Cc1ccc(O)cc1)[C@@H](C)O)[C@@H](C)O)[C@@H](C)CC)C(C)C)C(=O)N[C@@H](C)C(=O)N[C@@H](Cc1c[nH]c2ccccc12)C(=O)N[C@@H](CC(C)C)C(=O)N[C@H](C(=O)N[C@@H](CCCCN)C(=O)NCC(=O)NCC(=O)N1CCC[C@H]1C(=O)N[C@@H](CO)C(=O)N[C@@H](CO)C(=O)NCC(=O)N[C@@H](C)C(=O)N1CCC[C@H]1C(=O)N1CCC[C@H]1C(=O)N1CCC[C@H]1C(=O)N[C@@H](CO)C(=O)N[C@@H](CCCCNC(=O)CCCCCCCCCCCCCCC(=O)O)C(N)=O)C(C)C [Compound 106] | 67.0 | 157.8 | 0.097 nM | 0.922 nM
4 | 0.088 nM | 106.8% | 1.28 nM | 75% | CC[C@H](C)[C@H](NC(=O)[C@H](Cc1ccccc1)NC(=O)[C@H](CCC(=O)O)NC(=O)[C@H](CCCNC(=N)N)NC(=O)[C@@H](NC(=O)[C@H](C)NC(=O)[C@H](CCC(=O)O)NC(=O)[C@H](CCCCN)NC(=O)[C@H](CCC(=O)O)NC(=O)[C@H](CCSC)NC(=O)[C@H](Cc1ccc(O)cc1)NC(=O)[C@@H](NC(=O)[C@H](CO)NC(=O)[C@H](Cc1ccc(O)cc1)NC(=O)[C@H](CC(=O)O)NC(=O)[C@H](CO)NC(=O)[C@@H](NC(=O)[C@H](Cc1ccccc1)NC(=O)[C@@H](NC(=O)CNC(=O)[C@H](CCC(=O)O)NC(=O)C(C)(C)NC(=O)[C@@H](N)Cc1ccc(O)cc1)[C@@H](C)O)[C@@H](C)O)[C@@H](C)CC)C(C)C)C(=O)N[C@@H](C)C(=O)N[C@@H](Cc1c[nH]c2ccccc12)C(=O)N[C@@H](CC(C)C)C(=O)N[C@H](C(=O)N[C@@H](CCCCN)C(=O)NCC(N)=O)C(C)C [Compounds 023] (H-Y[Aib]EGTFTSDYSIYMEKEAVREFIAWLVKG-NH2) | 106.8 | 75 |  | 
5 |  |  |  |  | CCCCCCCCCCCCCCCC(=O)N[C@@H](CCC(=O)NCCCC[C@H](NC(=O)[C@@H](NC(=O)[C@H](CC(C)C)NC(=O)[C@H](Cc1c[nH]c2ccccc12)NC(=O)[C@H](C)NC(=O)[C@@H](NC(=O)[C@H](Cc1ccccc1)NC(=O)[C@H](CCC(=O)O)NC(=O)[C@H](CCCNC(=N)N)NC(=O)[C@@H](NC(=O)[C@H](C)NC(=O)[C@H](CCC(=O)O)NC(=O)[C@H](CCCCN)NC(=O)[C@H](CCC(=O)O)NC(=O)[C@H](CCSC)NC(=O)[C@H](Cc1ccc(O)cc1)NC(=O)[C@@H](NC(=O)[C@H](CO)NC(=O)[C@H](Cc1ccc(O)cc1)NC(=O)[C@H](CC(=O)O)NC(=O)[C@H](CO)NC(=O)[C@@H](NC(=O)[C@H](Cc1ccccc1)NC(=O)[C@@H](NC(=O)CNC(=O)[C@H](CCC(=O)O)NC(=O)C(C)(C)NC(=O)[C@@H](N)Cc1ccc(O)cc1)[C@@H](C)O)[C@@H](C)O)[C@@H](C)CC)C(C)C)[C@@H](C)CC)C(C)C)C(=O)NCC(=O)NCC(=O)N1CCC[C@H]1C(=O)N[C@@H](CO)C(=O)N[C@@H](CO)C(=O)NCC(=O)N[C@@H](C)C(=O)N1CCC[C@H]1C(=O)N1CCC[C@H]1C(=O)N1CCC[C@H]1C(=O)N[C@@H](CO)C(N)=O)C(=O)O [Compound 094] | 4.7 | 149.2 | 0.85 nM | 0.67 nM
6 |  |  |  |  | CCCCCCCCCCCCCCCC(=O)NCCCC[C@H](NC(=O)[C@H](CO)NC(=O)[C@@H]1CCCN1C(=O)[C@@H]1CCCN1C(=O)[C@@H]1CCCN1C(=O)[C@H](C)NC(=O)CNC(=O)[C@H](CO)NC(=O)[C@H](CO)NC(=O)[C@@H]1CCCN1C(=O)CNC(=O)CNC(=O)[C@H](CCCCN)NC(=O)[C@@H](NC(=O)[C@H](CC(C)C)NC(=O)[C@H](Cc1c[nH]c2ccccc12)NC(=O)[C@H](CS)NC(=O)[C@@H](NC(=O)[C@H](Cc1ccccc1)NC(=O)[C@H](CCC(=O)O)NC(=O)[C@H](CCCNC(=N)N)NC(=O)[C@@H](NC(=O)[C@H](C)NC(=O)[C@H](CCC(=O)O)NC(=O)[C@H](CCCCN)NC(=O)[C@H](CCC(=O)O)NC(=O)[C@H](CCSC)NC(=O)[C@H](Cc1ccc(O)cc1)NC(=O)[C@@H](NC(=O)[C@H](CO)NC(=O)[C@H](Cc1ccc(O)cc1)NC(=O)[C@H](CC(=O)O)NC(=O)[C@H](CO)NC(=O)[C@@H](NC(=O)[C@H](Cc1ccccc1)NC(=O)[C@@H](NC(=O)CNC(=O)[C@H](CCC(=O)O)NC(=O)C(C)(C)NC(=O)[C@@H](N)Cc1ccc(O)cc1)[C@@H](C)O)[C@@H](C)O)[C@@H](C)CC)C(C)C)[C@@H](C)CC)C(C)C)C(N)=O [Compound 096] (H-Y[Aib]EGTFTSDYSIYMEKEAVREFICWLVKGGPSSGAPPPSK(Palmitoyl)-NH2) | 42 | 404.7 | 0.1 nM | 0.253 nM
7 |  |  |  |  | CCCCCCCCCCCCCCCC(=O)N[C@@H](CCC(=O)NCCCC[C@H](NC(=O)[C@@H](NC(=O)[C@H](C)NC(=O)[C@H](CCC(=O)O)NC(=O)[C@H](CCCCN)NC(=O)[C@H](CCC(=O)O)NC(=O)[C@H](CCSC)NC(=O)[C@H](Cc1ccc(O)cc1)NC(=O)[C@@H](NC(=O)[C@H](CO)NC(=O)[C@H](Cc1ccc(O)cc1)NC(=O)[C@H](CC(=O)O)NC(=O)[C@H](CO)NC(=O)[C@@H](NC(=O)[C@H](Cc1ccccc1)NC(=O)[C@@H](NC(=O)CNC(=O)[C@H](CCC(=O)O)NC(=O)C(C)(C)NC(=O)[C@@H](N)Cc1ccc(O)cc1)[C@@H](C)O)[C@@H](C)O)[C@@H](C)CC)C(C)C)C(=O)N[C@@H](CCC(=O)O)C(=O)N[C@@H](Cc1ccccc1)C(=O)N[C@H](C(=O)N[C@@H](C)C(=O)N[C@@H](Cc1c[nH]c2ccccc12)C(=O)N[C@@H](CC(C)C)C(=O)N[C@H](C(=O)N[C@@H](CCCCN)C(=O)NCC(=O)NCC(=O)N1CCC[C@H]1C(=O)N[C@@H](CO)C(=O)N[C@@H](CO)C(=O)NCC(=O)N[C@@H](C)C(=O)N1CCC[C@H]1C(=O)N1CCC[C@H]1C(=O)N1CCC[C@H]1C(=O)N[C@@H](CO)C(N)=O)C(C)C)[C@@H](C)CC)C(=O)O [Compound 092] (H-Y[Aib]EGTFTSDYSIYMEKEAVK([γGlu-Palmitoyl])EFIAWLVKGGPSSGAPPPS-NH2) | 26.6 | 256.4 | 0.15 nM | 0.39 nM
